Experimental data published in US9359405B2, “Antagonists of the interleukin-1 receptor” (Phlogo ApS, priority 2011, dated 2016).
No end group written: not given here.

Experiments:
IL1RI [1] = molecular target: T1, IL1RI (Homo sapiens, UniProt P14778); assay: SPR (BiaCore) binding to immobilized IL1RI ectodomain; details: 25° C., pH 7.4
T1 construct: The recombinant protein comprising the whole extracellular part of IIL1RI was immobilised on the surface of a CM5 sensor chip
T1 sequence (P14778 18-336 limits assumed): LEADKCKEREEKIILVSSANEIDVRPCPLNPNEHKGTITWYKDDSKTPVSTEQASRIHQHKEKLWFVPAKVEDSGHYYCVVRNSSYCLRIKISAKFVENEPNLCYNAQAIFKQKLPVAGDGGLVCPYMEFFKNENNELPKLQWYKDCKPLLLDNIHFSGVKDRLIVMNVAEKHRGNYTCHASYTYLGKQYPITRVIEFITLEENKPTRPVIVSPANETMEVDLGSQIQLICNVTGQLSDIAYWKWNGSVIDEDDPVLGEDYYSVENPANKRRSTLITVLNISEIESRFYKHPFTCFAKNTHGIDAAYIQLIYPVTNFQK
Procedure: Binding analysis was performed using a BiaCore 2000 Instrument (BiaCore AB, Uppsala, Sweden) at 25° C. using 10 mM sodium phosphate (pH 7.4), 150 mM NaCl as running buffer. The flow-rate was 5 μl/min. Data were analysed by nonlinear curve fitting using the manufacturer's software. The recombinant protein comprising the whole extracellular part of IIL1RI was immobilised on the surface of a CM5 sensor chip by means of electrostatic interactions, and the peptide and the IL1β and IL1Ra proteins were injected at various concentrations. The curves corresponding to the difference between binding to peptides and a blank chip were used for analysis.

[2] = tested on: IL1β-activated AMJ2-C8 macrophage cells; assay: TNFα secretion by IL1β-activated macrophages (L929/MTS bioassay); type: cell-based; details: IL1β 1.2 μM
Procedure: The Ilantafin peptide or IL1Ra or IL1RI was added to cultures of macrophages (AMJ2-C8) seeded in 6-well multi-dishes (Nunc) (2.5×10^5 cells/well). After 24 h of incubation at 37° C., IL1β (1.2 μM) was added to the cultures to activate the macrophages. L929 cells were seeded in a 96-well plate at a density of 2×10^5 cells/mL. Both cell cultures were incubated for 24 h at 37° C. Conditioned medium from the macrophage cultures was collected and added to the fibroblast cultures together with 0.6 μg/well actinomycin. D (Sigma-Aldrich). Finally, after 24 h of incubation at 37° C., 20 μl of 3-(4,5-dimethylthiazol-2-yl)-5-(3-carboxymethoxyphenyl)-2-(4-sulfophenyl)-2H-tetrazolium (MTS) (Promega, Madison, Wis., USA) was added to each well and the plates were incubated protected from light, at 37° C., for ˜45 min and the optical density was measured at 490 nm in a Sunrise absorbance reader (Tecan, Männedorf, Switzerland). In order to calculate the amount of TNF-α in the conditioned medium, a standard curve was obtained by treating fibroblasts with different concentrations of TNF-α (R&D systems, Minneapolis, Minn., USA).

[3] = tested on: cerebellar granule neurons; assay: Survival assay, cerebellar granule neurons, low-potassium apoptosis; type: cell-based, rat; details: 5 mM KCl
Procedure: Survival assay: Primary cultures of CGN were plated at a density of 100,000 cells/cm2 on poly-L-lysine coated 8-well permanox slides in Neurobasal-A medium (Gibco BRL) supplemented with 2% (v/v) B27, 0.5% (v/v) glutamax, 100 units/mL penicillin, 100 µg/mL streptomycin and KCl, making the final concentration of KCl in the medium 40 mM. 24 hours after plating, cytosine-b-D-arabinofuranoside (Ara-C; Sigma-Aldrich) was added to a final concentration of 10 μM to avoid proliferation of glial cells, after which the neurons were allowed to differentiate for a further 6 days at 37° C. Apoptotic cell death was induced by washing twice and changing the medium to Basal Medium Eagle (BME; Gibco BRL) supplemented with 1% (v/v) glutamine, 100 U/mL penicillin and 100 µg/mL streptomycin, 3.5 g D-glucose/L and 1% (v/v) sodium pyruvate (Gibco BRL) together with various concentrations of peptide. Thereby the concentration of potassium in the cultures was reduced to 5 mM KCl (Ditlevsen et al., 2003). Two days after induction of apoptosis, the cells were fixed with 4% (v/v) formaldehyde and stained with Hoechst 33258 as described for the survival assay employing hippocampal neurons.

[4] = tested on: collagen-induced arthritis (CIA); assay: Collagen-induced arthritis in rats, treatment from day 15 (Example 7); type: in vivo, rat; details: 3.3 and 10 mg/kg s.c. daily from day 15
Source text: Rheumatoid arthritis is a chronic, inflammatory, systemic autoimmune disease that affects about 1% of the general population in Western countries. Collagen-induced arthritis (CIA) in rats is a widely employed animal model for the screening of anti-inflammatory compounds. Collagen bovine, type II (CII, Cat.no.20021, Lot 090209, Chondrex, USA), Complete Freund's Adjuvant, containing 0.1% of Mycobacterium tuberculosis (CFA, Cat.no. F5581, Lot 049K8700, Sigma-Aldrich), Incomplete Freund's Adjuvant (IFA, Cat.no. F5506, Lot 058K8702, Sigma). PBS (Panum Institute, Copenhagen University). Isofluran (Baxter). Animals were immunized twice: on day 0 (CII+CFA) and on day 10 (CII+IFA, booster). On day 15 the mean clinical score reached a value of 5.0 and all animals were divided into 3 groups so that the severity of disease (mean clinical score) in all groups was almost equal. The peptide (two doses, 3.3 and 10 mg/kg) was administered subcutaneously daily starting at day 15. The clinical evaluation of the arthritis severity was assessed using the following grading system: O— no redness or swelling in foot and palm; 1—slight swelling or redness in metatarsophalangeal joint and ankle joint foot or palm; 2—progressed swelling/inflammation and redness from ankle to mid foot or in entire palm; 3—swelling/inflammation of entire foot except toes; 4—swelling and inflammation of entire foot including toes.

IL1RI [5] = molecular target: T2, IL1RI (Homo sapiens, UniProt P14778); assay: Kb (s^-1)
T2 construct: The recombinant protein comprising the whole extracellular part of IIL1RI was immobilised on the surface of a CM5 sensor chip
Source text: Table printed on a drawing sheet, Figure 3
Head of the field: Kb (s^-1)
First copying reader's note: Rate and affinity constants for binding to IL1RI; each cell holds the value with its ± error, and Ilantafin is a peptide while ILRa and IL1β are proteins.

## SGRKSSKMQA [Ilantafin]
IL1RI [1]
  affinity of interaction with immobilized ectodomain of IL1RI: within the same order of magnitude as the binding affinities of IL1β and IL1Ra to IL1RI
[2]
  inhibition of TNFα secretion by IL1β-activated macrophages: in a dose dependent manner inhibits the IL1β-induced activation of macrophages
[3]
  survival effect compared with IGF-1: comparable with the effect of the neuronal survival factor IGF-1
[3]; 2 days
  neuronal survival / cell death (apoptosis) induced by lowering potassium: reduces neuronal cell death (apoptosis)
[4]
  clinical manifestations (clinical score) of CIA: abrogates an increase in clinical manifestations of CIA in rats
IL1RI [5]
  koff: 0.000753 s⁻¹
